The values that follow are results of earlier work, collected in US6491946B1, “Pharmaceutical levothyroxine preparation” (Merck Patent Gesellschaft, priority 1998, dated 2002).

Like-named read-outs stand apart in the source and are kept apart here.

Consider `N[C@@H](Cc1cc(I)c(Oc2cc(I)c(O)c(I)c2)c(I)c1)C(=O)O` [Levothyroxine sodium, levothyroxine sodium], for which the Solubility result runs as follows: (in ethanol) “soluble with great difficulty”; (in water) “soluble with great difficulty”.
